From patent US20250313619A1, “RISANKIZUMAB COMPOSITIONS” (ABBVIE INC., priority 0001, published 2025)
pIC50: −log10 of the molar value.

Tests used:
[1] = molecular target: T1, PLA2G15 (Cricetulus griseus, UniProt G3HKV9); test: PLA2G15 inhibition study: fosinopril spiked in DP2 material, PS20 HPLC-CAD subspecies method; type: biochemical; settings: room temperature in dark for two weeks
T1 construct: PLA2 in the liquid compositions described herein is derived from a CHO cell line; endogenous in cells; host or cells: CHO cells expressing risankizumab (host-cell protein carried into drug substance/drug product)
T1 sequence (G3HKV9 34-412): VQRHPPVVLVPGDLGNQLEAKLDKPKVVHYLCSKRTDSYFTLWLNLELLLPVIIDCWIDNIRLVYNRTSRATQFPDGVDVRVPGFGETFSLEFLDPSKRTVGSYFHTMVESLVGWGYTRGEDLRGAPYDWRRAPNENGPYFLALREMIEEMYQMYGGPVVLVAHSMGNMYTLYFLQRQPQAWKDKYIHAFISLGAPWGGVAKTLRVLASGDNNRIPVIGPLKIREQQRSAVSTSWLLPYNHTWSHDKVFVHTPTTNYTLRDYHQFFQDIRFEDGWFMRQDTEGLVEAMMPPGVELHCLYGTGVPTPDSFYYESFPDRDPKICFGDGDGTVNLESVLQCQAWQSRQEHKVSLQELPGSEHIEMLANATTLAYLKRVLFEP
Description: Fosinopril is an angiotensin converting enzyme (ACE) inhibitor, which is been used to treat hypertension and some types of chronic heart failure (Murdoch et al. (1992) Drugs 43:123-140). […] All samples (including non-spiked samples) were incubated at room temperature in the dark for two weeks. PS20 degradation levels in those samples were tested with a PS20 subspecies method. PS20 degradation levels in those samples were compared with negative controls (non-spiked samples kept at room temperature in dark for two weeks) and positive controls (non-spiked samples kept at −80° C. before testing). […] The chemical structure of fosinopril is shown below.
Fosinopril sodium was dissolved in Mill-Q water at a concentration of 0.5 mg/mL. The solution was aseptically filtered with a 0.22 syringe filter before use. During the filtration, the syringe filter was flushed with Mill-Q water and then with the 0.5 mg/mL fosinopril water solution. Lower concentrations of fosinopril water solutions were aseptically diluted with Mill-Q water. More detailed sample preparation can be found in Table 22. All vials were glass vials, and solutions were well mixed before incubation. Samples were incubated at room temperature in dark for two weeks before testing.
A PS20 HPLC-CAD subspecies method was used to test the PS20 levels qualitatively as well as profiles in all samples. Solutions were transferred to HPLC vials and diluted with Milli-Q water (1:1 dilution). All HPLC vials were mixed well before placed in an HPLC autosampler for testing. Sample descriptions and labels can be found in Table 23.

[2] = molecular target: T2, PLA2G15 (Phospholipase A2 Group XV) (Homo sapiens, UniProt Q8NCC3); settings: Hinkovska-Galcheva et al. (2021); read-out: IC50, inhibition of PLA2G15 activity; cited from earlier work
T2 sequence (Q8NCC3 34-412): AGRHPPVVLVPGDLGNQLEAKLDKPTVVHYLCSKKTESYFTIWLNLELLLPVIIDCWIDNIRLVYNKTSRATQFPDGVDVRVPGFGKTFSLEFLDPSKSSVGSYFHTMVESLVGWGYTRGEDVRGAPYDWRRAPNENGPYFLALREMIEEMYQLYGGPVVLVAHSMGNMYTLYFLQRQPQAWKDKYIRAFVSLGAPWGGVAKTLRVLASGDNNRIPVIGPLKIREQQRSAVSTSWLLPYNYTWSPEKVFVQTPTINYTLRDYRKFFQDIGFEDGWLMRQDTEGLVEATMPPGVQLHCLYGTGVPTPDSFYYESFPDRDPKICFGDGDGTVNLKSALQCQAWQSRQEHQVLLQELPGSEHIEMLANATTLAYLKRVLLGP

In the case of `CCC(=O)O[C@@H](O[P@](=O)(CCCCc1ccccc1)CC(=O)N1C[C@H](C2CCCCC2)C[C@H]1C(=O)O)C(C)C` [fosinopril], the “protection (inhibition) of PS20 degradation in the DP2 material” value (“protection (inhibition)” for short) ([1]; 0.9 μg/mL spiking level, vs non-spiked control) was “reduction of PS20 degradation has been observed”, the “protection (inhibition)” value ([1]; 0.9 μg/mL spiking level, vs non-spiked control, listed as Fosinopril) was “showed protection (inhibition)” and the “protection (inhibition)” value ([1]; 0.9-83.3 ug/mL spiked) was “Dose (concentration) dependent protection (inhibition)”. For the same compound, the “protection (inhibition)” value ([1]; 0.9-83.3 ug/mL spiked, listed as Fosinopril) was “dose dependent protection (inhibition)” and the pIC50 [2] was about 6.74.
